The conditions of data set [1]: cited from earlier work; for Viscosity at 25° C.: Table 3.
For data set [2] the following is noted: cited from earlier work.
The conditions of data set [3]: cited from earlier work. The source holds these as a separate data set.
The conditions of data set [4]: cited from earlier work; for LogK (octanol over water): Table 3, ratio of concentration of the oil in octanol and water at equilibrium.
A short description of data set [5]: equivalent diffusion distance through oil-membrane compared to water (calculation). Format: physicochemical. From the text:
For this reason, the present inventors chose to use 11 μm thick polycarbonate track-etch membranes instead of thicker hydrophobic membranes such as conventional porous Teflon films (z=10s to 100s of μm). The oil wicks into and remains in the track-etch membrane pores because of its lower interfacial surface tension with the polycarbonate than the water has with polycarbonate. […] The diffusion coefficient of an analyte is dependent on the viscosity of the fluid it is diffusing through. Therefore, an important design element for the oil is to have a low viscosity (diffusion coefficient is inversely proportional to the viscosity of the oil [Walter, A.; Gutknecht, J. Permeability of Small Nonelectrolytes through Lipid Bilayer Membranes. J. Membr. Biol. 1986, 90 (3), 207-217. https://doi.org/10.1007/BF01870127]. Consider an informative example related to the materials used here. The optimal track-etch membranes for this work (see Table 1-below) have an 11 μm membrane thickness and 15.7% porosity, which is equivalent to the analyte having to diffuse through a uniform 70 μm of oil (11 μm/0.157). Now consider castor oil, with a viscosity about 730 times greater than that of water (see Table 2-below). An 11 μm thick castor oil membrane would then be equivalent to a 51,170 μm thick water diffusion distance (11 μum/0.157*730). Alternatively, using a low viscosity oil, such as 1-decanol, the 11 μm thick oil-membrane would have an equivalent thickness of only 945 μm diffusion distance through water (see Table 2).

Molecules are shown by their SMILES. Converted amounts (≈) assume the structure as drawn. Some results are limits rather than exact numbers.

On to `CCCCCCCCCCCCCC` [Tetradecane], for which the “Viscosity at 25° C.” value in data set [1] is 2.13 cP. Moreover, in data set [2], the Solubility in water is 0.00033 µg/mL (≈ 0.00166 µM). The “Vapor pressure at 25° C.” value in data set [3] is 0.0369 mmHg. The “LogK (octanol over water)” value in data set [4] was 8.19.
As to `CCCCCCCCCCCCS` [Dodecane thiol], the Solubility in water in data set [2] was less than 0.2 µg/mL. Moreover, the “Vapor pressure at 25° C.” value in data set [3] is 0.000015 mmHg. For the same molecule, the “LogK (octanol over water)” value in data set [4] is reported as 6.1.
Turning to `CCCCCCCCOCCCCCCCC` [Dioctyl ether], the “Viscosity at 25° C.” value in data set [1] is reported as 0.224 cP. Also, in data set [3], the “Vapor pressure at 25° C.” value is given as 0.005 mmHg. Also, in data set [4], the “LogK (octanol over water)” value was 6.9.
For `CC1=C(C/C=C(\C)CCC[C@H](C)CCC[C@H](C)CCCC(C)C)C(=O)c2ccccc2C1=O` [Vitamin K1], the “LogK (octanol over water)” value in data set [4] is 10.9.
On to `CCCCCCCCCCO` [1-Decanol], for which the Viscosity in data set [1] (Table 2) is on record as 12 cP. The “Viscosity at 25° C.” value in data set [1] is listed as 12 cP. For the same molecule, the “Vapor pressure at 25° C.” value in data set [3] was 0.00851 mmHg. In addition, the Equivalent water thickness in data set [5] (pore size 0.1 μm, open area 3.1%, thickness 6 μm) is listed as 26,10 μm; in data set [5] (pore size 0.2 μm, open area 9.4%, thickness 10 μm), 1,434 μm; in data set [5] (pore size 0.4 μm, open area 12.6%, thickness 10 μm), 1,070 μm; in data set [5] (pore size 1.0 μm, open area 15.7%, thickness 11 μm), 945 μm; in data set [5] (pore size 3.0 μm, open area 14.1%, thickness 9 μm) it was 861 μm. Also, the “Log P” value in data set [4] (Table 2) is 5. The “LogK (octanol over water)” value in data set [4] was 4.57.
Consider `CCCCCCCC/C=C\CCCCCCCC(=O)O` [Oleic acid], for which the “Viscosity at 25° C.” value in data set [1] was 27.64 cP. The Solubility in water in data set [2] was 0.01 µg/mL (≈ 0.0354 µM). Moreover, the “Vapor pressure at 25° C.” value in data set [3] is recorded as 0.0000005 mmHg. Also, the “LogK (octanol over water)” value in data set [4] is listed as 7.64.

These data come from patent US20230358737A1, “CONTINUOUSLY CHEMICALLY ENHANCED APTAMER SENSORS” (University of Cincinnati, priority 2020, published 2023).
